Results published in article PMC12691669, “Inhibitors of the 20S proteasome β5 subunit as potent and selective agents against Trichomonas vaginalis” (Antimicrobial Agents and Chemotherapy, 2025).

Legend:
[1] = system: T. vaginalis Tv20S proteasome β2 subunit; assay: In vitro proteasome assay, Ac-FRSR-amc substrate; type: biochemical, Trichomonas vaginalis; conditions: recombinant Tv20S, mean ± SD of three experiments
Method: (§1) The T. vaginalis proteasome was expressed in recombinant form as previously described ([27]). Briefly, Spodoptera frugiperda cells were co-infected with three baculovirus vectors carrying the T. vaginalis genes for the 7 α-subunits, 7 β-subunits, and the Ump-1 chaperone, respectively. The resulting proteasome complex was purified from cell lysates via streptavidin column and size exclusion chromatography and stored at −80°C. Purified human c20S proteasome and recombinant human proteasome activator PA28α ([21]) were obtained from Bio-Techne and stored at −80°C. Dilutions of the test agents were transferred to 384-well plates (Greiner Bio-One) in triplicate wells using an Echo 650 Acoustic Liquid Handler (Beckman Coulter). Six replicate plates were prepared for each compound for testing with three T. vaginalis-optimized substrates and three human-optimized substrates. After dispensing, plates were sealed and stored at −20°C. The following fluorescent substrates and final substrate concentrations were used to assay subunit activities of the T. vaginalis proteasome (Tv20S) ([28]) or the human constitutive proteasome (c20S) ([19], [52]): Ac-RYFD-amc (Genscript) at 100 µM for Tv20S β1 subunit, Ac-FRSR-amc (Genscript) at 20 µM for Tv20S β2 subunit, Ac-GWYL-amc (Genscript) at 20 µM for Tv20S β5 subunit, z-LLE-amc (R&D Systems) at 80 µM for c20S β1 subunit, z-VLR-amc (AdipoGen Life Sciences) at 30 µM for c20S β2 subunit, and suc-LLVY-amc (R&D Systems) at 65 µM for c20S β5 subunit. Substrates and proteasomes were diluted in an assay buffer consisting of HEPES pH 7.5 and 1 mM DTT. For the human proteasome assays, 2 nM c20S was incubated at room temperature with 200 nM PA28α for 1 h to activate the complex prior to addition to the 384-well plates containing the substrate-inhibitor mixtures. […] Both proteasomes were added to the wells at a 1 nM final assay concentration. Fluorescence was measured over 4 h at 360 nm excitation and 460 nm emission on a Biotek Synergy HTX plate reader.

[2] = system: ubiquitin-conjugated proteins in T. vaginalis F1623; assay: Immunoblot analysis of ubiquitin labeling; type: cell-based, Trichomonas vaginalis; conditions: 3 h treatment, 30× GI50
Method: Protein concentrations were measured using the Pierce BCA assay (Thermo Scientific) and adjusted to 10 mg/mL. Proteins were fractionated on SDS-PAGE, transferred onto a nitrocellulose membrane (Bio-Rad), which was blocked with 5% non-fat dry milk in TBST buffer (20 mM Tris base, 150 mM NaCl, 0.05% Tween 20, pH adjusted to 7.6 with HCl) for 1 h and probed with primary anti-ubiquitin antibody (Proteintech, 10201-2-AP) at a 1:2,000 dilution, followed by incubation with anti-rabbit horseradish peroxidase (HRP)-conjugated IgG (Jackson laboratory) at a 1:5,000 dilution. HRP labeling was visualized by chemiluminescence (Immobilon, Millipore).

[3] = biological target: T1, Human c20S proteasome β5 subunit (Homo sapiens, UniProt P20618+P28074); assay: In vitro proteasome assay, suc-LLVY-amc substrate; type: biochemical; conditions: purified human c20S with PA28α, mean ± SD; read-out: Human c20S proteasome inhibition of β5 subunit (IC50)
T1 construct: purchased Bio-Techne
Method: as §1

[4] = biological target: T2, Human c20S proteasome β2 subunit (Homo sapiens, UniProt P49720+Q99436); assay: In vitro proteasome assay, z-VLR-amc substrate; type: biochemical; conditions: purified human c20S with PA28α, mean ± SD
T2 construct: purchased Bio-Techne
Method: as §1

[5] = biological target: T. vaginalis Tv20S proteasome β1 subunit (Trichomonas vaginalis, UniProt A2E7Z2); assay: In vitro proteasome assay, Ac-RYFD-amc substrate; type: biochemical; conditions: recombinant Tv20S, mean ± SD of three experiments
Method: as §1

[6] = system: T. vaginalis strain F1623; assay: 24 h growth and survival assay (ATP luminescence, GI50); type: cell-based, Trichomonas vaginalis; conditions: T. vaginalis F1623 vs human HeLa cells
Method: The following T. vaginalis strains were used: F1623 ([50]), G3 (ATCC PRA-98), and LA1 ([25]). […] Drug susceptibility assays were performed as described previously ([23]) with several minor modifications. Briefly, 10 mM stocks of the test compounds in DMSO were serially diluted 1:3 using an Echo 650 Acoustic Liquid Handler (Beckman Coulter). Subsequently, trophozoites (5 × 10^3/well) in TYM modified media were added to the wells in 384-well plates, and cultures were incubated for 24 h at 37°C under anaerobic conditions (AnaeroPack-Anaero System; Remel). For testing in mammalian cells, the following cell lines were used: Human cervical cancer cells HeLa (ATCC CCL-2), non-transformed mouse fibroblast cell line 3T3-L1 (ATCC CL-173), normal monkey kidney epithelial cell line Vero (ATCC CCL-81), and human B lymphoma cells Raji (ATCC CCL-86). Test compounds were serially diluted (1:3) and added to mammalian cell cultures grown in 384-well plates, and cultures were incubated for 48 h at 37°C in 5% CO2, 95% air. Growth and viability of T. vaginalis and mammalian cells were determined with an ATP assay by adding the BacTiter-Glo Microbial Cell Viability Assay reagent (Promega) directly to the wells and measuring ATP-dependent luminescence in a microplate reader. […] Experiments were repeated at least three times, and the mean and SEM of the pGI50 values were calculated.

[7] = biological target: T3, Human c20S proteasome β1 subunit (Homo sapiens, UniProt P28072+Q99436); assay: In vitro proteasome assay, z-LLE-amc substrate; type: biochemical; conditions: purified human c20S with PA28α, mean ± SD
T3 construct: purchased Bio-Techne
Method: as §1

[8] = system: β5 proteasome subunit in live T. vaginalis F1623 (compared to human HeLa cells); assay: Fluorescence gel assay of proteasome subunit targeting in live cells; type: cell-based, Trichomonas vaginalis; conditions: 3 h incubation, gel densitometry, T. vaginalis F1623 vs HeLa
Method: T. vaginalis F1623 and human HeLa cells were incubated for 3 h with proteasome inhibitors at a range of concentrations or with solvent as a control. Cells were lysed by three consecutive freeze/thaw cycles in a buffer of 50 mM HEPES, pH 7.5, 10 µM E64, 100 µM AEBSF, 10 µM RR11a, 1 µM Pepstatin, and 1 mM DTT. Protein concentrations were measured with the Pierce BCA assay (Thermo Scientific) and adjusted to 5 mg/mL. Samples were incubated with 2 µM Me4BodipyFL-Ahx3Leu3VS ([53]) at 2.5 mg/mL protein concentration for 24 h at 37°C. […] Band intensities were quantified using ImageJ (NIH). Each peak corresponding to a protein band was selected, and the area under the curve was determined after subtraction of the intensity in an adjacent area outside of the respective band. For closely spaced bands, the midpoint between the peaks of two bands was used to separate the areas. Band intensities were normalized to the respective controls, not incubated with inhibitors.

[9] = biological target: T. vaginalis Tv20S proteasome β5 subunit (Trichomonas vaginalis, UniProt A2DD57+A2F716); assay: biochemical; type: biochemical; conditions: recombinant Tv20S, mean ± SD of three experiments; read-out: Tv20S proteasome inhibition of β5 subunit (IC50)
Method: as §1

Chain of T. vaginalis Tv20S proteasome β1 subunit (A2E7Z2 entry or part of it): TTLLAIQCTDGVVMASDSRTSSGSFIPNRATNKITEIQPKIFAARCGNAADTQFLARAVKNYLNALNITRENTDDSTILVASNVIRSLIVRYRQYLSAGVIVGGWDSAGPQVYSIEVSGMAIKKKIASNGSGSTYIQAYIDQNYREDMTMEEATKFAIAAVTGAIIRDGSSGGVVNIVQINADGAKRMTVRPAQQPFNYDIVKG
Chain of T. vaginalis Tv20S proteasome β5 subunit (A2DD57 entry or part of it): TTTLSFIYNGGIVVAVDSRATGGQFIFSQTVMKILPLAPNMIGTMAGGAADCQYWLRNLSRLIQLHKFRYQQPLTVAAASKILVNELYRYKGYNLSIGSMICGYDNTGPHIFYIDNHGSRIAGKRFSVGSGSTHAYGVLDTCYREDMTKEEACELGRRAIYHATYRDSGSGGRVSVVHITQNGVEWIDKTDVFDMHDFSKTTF
Chain of T. vaginalis Tv20S proteasome β5 subunit (A2F716 entry or part of it): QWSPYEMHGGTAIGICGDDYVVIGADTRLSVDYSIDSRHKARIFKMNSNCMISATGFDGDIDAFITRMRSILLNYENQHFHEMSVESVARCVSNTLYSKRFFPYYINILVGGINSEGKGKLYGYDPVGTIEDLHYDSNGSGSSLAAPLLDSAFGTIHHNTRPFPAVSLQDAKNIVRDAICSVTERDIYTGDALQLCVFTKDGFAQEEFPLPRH

Row | SMILES | Tv20S proteasome inhibition of β2 subunit (IC50) [1] | abundance of ubiquitin-labeled proteins [2] | IC50 [3] [nM] | Human c20S proteasome inhibition of β2 subunit (IC50) [4] | Tv20S proteasome inhibition of β1 subunit (IC50) [5] | SI (ratio of GI50 in HeLa cells over GI50 in T. vaginalis) [6] | Human c20S proteasome inhibition of β1 subunit (IC50) [7] | β5 inactivated in T. vaginalis at lower concentrations compared to human cells [8] [fold] | IC50 [9] [nM] | IC50 ([4]; read-out: Human c20S proteasome inhibition of β2 subunit (IC50)) [nM] | IC50 ([7]; read-out: Human c20S proteasome inhibition of β1 subunit (IC50)) [nM]
1 | COc1ccc(CC(NC(=O)C(C)NC(=O)OCc2ccccc2)C(=O)NC(Cc2ccccc2)C(=O)C2(C)CO2)cc1 (stereo not shown) [compound 12] | No inhibition | accumulation of ubiquitinated proteins | 379 ± 61.2 | No inhibition | Activation | 63.1 | No inhibition | 12 | 20.6 ± 5.39 | – | –
2 | COc1ccc(C[C@H](NC(=O)[C@H](C)NC(=O)C2=C(C)c3ccccc3C2)C(=O)N[C@@H](Cc2ccccc2)C(=O)[C@@]2(C)CO2)cc1 [compound 4] | No inhibition | – | 11 ± 1.12 | – | Activation | 21.4 | – | – | 8.21 ± 1.16 | 1690 ± 410 | 19700 ± 8580
3 | COc1ccc(CC(NC(=O)C(C)NC(=O)OCc2ccccc2)C(=O)NC(Cc2ccccc2)C(=O)C2(C)CO2)cc1 (stereo not shown) [compound 11] | No inhibition | – | 45.3 ± 4.67 | No inhibition | Activation | 51.3 | No inhibition | – | 4.29 ± 2.23 | – | –
4 | COc1ccc(C[C@H](NC(=O)[C@H](C)NC(=O)C2=C(C)c3ccccc3C2)C(=O)N[C@@H](Cc2ccc(-c3ccccc3)cc2)C(=O)[C@@]2(C)CO2)cc1 [compound 20] | No inhibition | – | 39.4 ± 4.76 | No inhibition | Activation | 16.2 | No inhibition | – | 44.1 ± 6.71 | – | –
5 | CCCCCC(=O)NC(CC(=O)NC(CCCC)C(=O)NC(Cc1ccccc1)C(=O)C1(C)CO1)CC(=O)OC(C)(C)C (stereo not shown) [compound 8] | No inhibition | accumulation of ubiquitinated proteins | 4100 | No inhibition | Activation | 218.8 | No inhibition | 22 | 43.7 ± 12.3 | – | –
6 | COc1ccc(C[C@H](NC(=O)[C@H](C)NC(=O)C2=C(C)c3ccccc3C2)C(=O)N[C@@H](Cc2ccccc2)C(=O)[C@]2(C)CO2)cc1 [compound 22] | No inhibition | – | 84.8 ± 20.2 | No inhibition | Activation | 16.6 | No inhibition | – | 60.5 ± 8.1 | – | –
